According to patent publication US20150291565A1, “INDOLE COMPOUNDS AND THEIR USE AS ANTIMICROBIALS” (Memorial Sloan-Kettering Cancer Center, priority 2012, published 2015):
pIC50: −log10 of the molar value. ≈ marks a conversion by molar mass, not a printed value. Where “and” joins values, the source holds several entries; their conditions need not be identical. Equal entries are not always repeated. Where two headings read alike, the source gives them in different places.

Columns and labels:
MRSA [1] = test: MIC against MRSA; assay type: cell-based; settings: Staphylococcus aureus
K. pneumoniae ATCC 51503 = test: Broth dilution MIC, K. pneumoniae ATCC 51503; assay type: cell-based; settings: Klebsiella pneumoniae
E. coli (ATCC 25922) = test: Septicemia survival model in neutropenic CD1 mice, E. coli; assay type: in vivo
[2] = test system: S. aureus (MRSA) (ATCC33591); test: Septicemia survival model in neutropenic CD1 mice, MRSA; assay type: in vivo
M. smegmatis (mc2155) = test: Disk diffusion assay, zone of inhibition, M. smegmatis; assay type: cell-based
[3] = test system: S. pneumoniae ATCC 6301 (PSSP); test: Broth dilution MIC, S. pneumoniae ATCC 6301; assay type: cell-based; settings: Streptococcus pneumoniae
[4] = test system: S. pneumoniae ATCC 700674 (PRSP); test: Broth dilution MIC, S. pneumoniae ATCC 700674; assay type: cell-based; settings: Streptococcus pneumoniae
P. aeruginosa ATCC 9027 = test: Broth dilution MIC, P. aeruginosa ATCC 9027; assay type: cell-based; settings: Pseudomonas aeruginosa
[5] = test system: S. aureus ATCC 33591 (MRSA); test: Broth dilution MIC, S. aureus ATCC 33591; assay type: cell-based; settings: for MIC: Staphylococcus aureus
[6] = test system: S. pneumoniae (ATCC 6303); test: Thigh infection model in neutropenic CD1 mice, S. pneumoniae; settings: 24 hours; for Log reduction: vs vehicle
E. coli ATCC 25922 = test: Broth dilution MIC, E. coli ATCC 25922; assay type: cell-based; settings: Escherichia coli
C. albicans ATCC 14053 = test: Broth dilution MIC, C. albicans ATCC 14053; assay type: cell-based; settings: Candida albicans, ATCC14053; Table 1; range 64 down to 0.12 μg/ml
Method: In vitro Anti-bacterial & Anti-fungal Activity Assay: All test compounds were prepared as 6.4 mg/ml stock solutions in DMSO and further diluted according to the NCCLS M7-A6 (Page 5) document with sterile water or appropriate diluent. A working stock of 256 μg/ml was used to do 1:2 serial dilutions in 96-well plates. […] The inoculums were prepared by making a direct sterile water suspension of isolated colonies from 18 to 24 hr agar plates for all organisms (Mueller Hinton, Blood Agar or SDA plates). Each bacterial suspension was adjusted to read between 0.09 and 0.11 absorbance at 620 nm. […] These were further diluted 1/100 in appropriate broth for inoculating the 96-well plates. The C. albicans suspension was adjusted to read between 70 and 75% Transmittance at 530 nm and then diluted 1/500 in RPMI+MOPS broth. All aerobic bacterial and fungal plates were incubated for 18 hrs. at 35° C. […] Plates were read using a Beckman Automated Plate Reader at 650 nm. Readings were confirmed by visual examination of plates. (See Table 1, Table 2, Table 3, and Table 4). […] It is important to note that positive results against C. albicans are often indicative of broad spectrum antifungal activity, while negative results are not necessarily conclusory of a lack of activity against other fungus.

[7] = test system: M. smegmatis (mc2155) Beta-Galactosidase (B-gal) reporter gene; test: HTS screen with Beta-Galactosidase reporter gene in M. smegmatis; assay type: cell-based; settings: Mycolicibacterium smegmatis
[8] = test system: methicillin-resistant S. aureus (ATCC 33591); test: Thigh infection model in neutropenic CD1 mice, MRSA; settings: 24 hours; for Log reduction: vs vehicle
MRSA [9] = test: Disk diffusion assay, zone of inhibition, MRSA; assay type: cell-based, Staphylococcus aureus
[10] = disk diffusion zone of inhibition
[11] = 10 mg/kg BID IP, listed as 356313, 10 mg/kg
[12] = 20 mg/kg BID IP, listed as 356313, 20 mg/kg

## c1cc(C2=NCCN2)ccc1Nc1ccc(-c2cc3ccc(C4=NCCN4)cc3[nH]2)cc1 [SKI-1]
MRSA [1]
  MIC: 9.2 µM (≈ 3.87 µg/mL)
K. pneumoniae ATCC 51503; ATCC51503, Table 1, range 64 down to 0.12 μg/ml, read-out: MIC K. pneumoniae ATCC 51503
  MIC: 2 µg/mL (≈ 4.76 µM)
K. pneumoniae ATCC 51503; ATCC51503, Table 2, broth dilution MIC in ug/ml, read-out: MIC K pneumonia ATCC 51503
  MIC: 2 µg/mL (≈ 4.76 µM)
K. pneumoniae ATCC 51503; ATCC51503, Table 4, broth dilution MIC according to CLSI standards (NAEJA), read-out: MIC K. pneumoniae ATCC 51503
  MIC: 1 µg/mL (≈ 2.38 µM)
E. coli (ATCC 25922); 10 mg/kg
  Day by which all the mice died: ≤ 3 days
E. coli (ATCC 25922); 10 mg/kg BID IP
  Percent Survival Day 1: 100%
  Percent Survival Day 2: 60%
  Percent Survival Day 3: 0%
  Percent Survival Day 4: 0%
  Percent Survival Day 5: 0%
  Percent Survival Day 6: 0%
  Percent Survival Day 7: 0%
E. coli (ATCC 25922); 20 mg/kg
  Day by which all the mice died: ≤ 4 days
E. coli (ATCC 25922); 20 mg/kg BID IP
  Percent Survival Day 1: 100%
  Percent Survival Day 2: 80%
  Percent Survival Day 3: 60%
  Percent Survival Day 4: 0%
  Percent Survival Day 5: 0%
  Percent Survival Day 6: 0%
  Percent Survival Day 7: 0%
[2]; 10 mg/kg
  Day by which all the mice died: ≤ 3 days
[2]; 10 mg/kg BID IP
  Percent Survival Day 1: 100%
  Percent Survival Day 2: 100%
  Percent Survival Day 3: 0%
  Percent Survival Day 4: 0%
  Percent Survival Day 5: 0%
  Percent Survival Day 6: 0%
  Percent Survival Day 7: 0%
[2]; 20 mg/kg
  Day by which all the mice died: ≤ 4 days
[2]; 20 mg/kg BID IP
  Percent Survival Day 1: 100%
  Percent Survival Day 2: 100%
  Percent Survival Day 3: 80%
  Percent Survival Day 4: 0%
  Percent Survival Day 5: 0%
  Percent Survival Day 6: 0%
  Percent Survival Day 7: 0%
M. smegmatis (mc2155); [10]
  Zone Size M. smegmatis: 19.6 mm
M. smegmatis (mc2155); n = 3
  Average Zone Size MC2155 (n = 3): 12.3
[3]; ATCC6301, Table 1, range 64 down to 0.12 μg/ml, read-out: MIC S. pneumoniae ATCC 6301
  MIC: ≤ 0.12 µg/mL
[3]; ATCC6301, Table 2, broth dilution MIC in ug/ml, read-out: MIC S pneumonia ATCC 6301 PSSP
  MIC: 0.12 µg/mL (≈ 0.285 µM)
[3]; ATCC6301, Table 3, starting at 4 μg/ml, read-out: MIC S. pneumoniae ATCC 6301
  MIC: 0.12 µg/mL (≈ 0.285 µM)
[3]; ATCC6301, Table 4, broth dilution MIC according to CLSI standards (NAEJA), read-out: MIC PSSP S. pneumoniae ATCC 6301
  MIC: 0.12 µg/mL (≈ 0.285 µM)
[4]; Table 1, range 64 down to 0.12 μg/ml, read-out: MIC S. pneumoniae ATCC 700674
  MIC: ≤ 0.12 µg/mL
[4]; Table 2, broth dilution MIC in ug/ml, read-out: MIC S pneumonia ATCC 700674 PRSP
  MIC: 0.12 µg/mL (≈ 0.285 µM)
[4]; Table 3, starting at 4 μg/ml, read-out: MIC S. pneumoniae ATCC 700674
  MIC: 0.12 µg/mL (≈ 0.285 µM)
[4]; Table 4, broth dilution MIC according to CLSI standards (NAEJA), read-out: MIC PRSP S. pneumoniae ATCC 700674
  MIC: 0.03 µg/mL (≈ 0.0713 µM)
P. aeruginosa ATCC 9027; ATCC 9026 / ATCC 9027, Table 2, broth dilution MIC in ug/ml, read-out: MIC P aeruginosa ATCC 9026
  MIC: 1 µg/mL (≈ 2.38 µM)
P. aeruginosa ATCC 9027; ATCC9027, Table 1, range 64 down to 0.12 μg/ml, read-out: MIC P. aeruginosa ATCC 9027
  MIC: 1 µg/mL (≈ 2.38 µM)
P. aeruginosa ATCC 9027; ATCC9027, Table 4, broth dilution MIC according to CLSI standards (NAEJA), read-out: MIC P. aeruginosa ATCC 9027
  MIC: 0.5 µg/mL (≈ 1.19 µM)
[5]; Table 1, range 64 down to 0.12 μg/ml, read-out: MIC S. aureus ATCC 33591
  MIC: 0.25 µg/mL (≈ 0.595 µM)
[5]; Table 2, broth dilution MIC in ug/ml, read-out: MIC S aureus ATCC 33591 MRSA
  MIC: 0.25 µg/mL (≈ 0.595 µM)
[5]; Table 4, broth dilution MIC according to CLSI standards (NAEJA), read-out: MIC MRSA S. aureus ATCC 33591
  MIC: 0.12 µg/mL (≈ 0.285 µM)
[5]; Table 3, starting at 4 μg/ml
  MIC S. aureus ATCC 33591: 0.25 µg/mL (≈ 0.595 µM)
[6]; 10 mg/kg BID IP
  Mean bacterial tissue burden (log10/thigh): 6.7143 log10/thigh
[6]; [11]
  Log reduction: 2.40 Log and 2.3984 Log
[6]; 20 mg/kg BID IP
  Mean bacterial tissue burden (log10/thigh): 5.6260 log10/thigh
[6]; [12]
  Log reduction: 3.49 Log and 3.4867 Log
E. coli ATCC 25922; ATCC 25921 / ATCC 25922, Table 2, broth dilution MIC in ug/ml, read-out: MIC E. coli ATCC 25921
  MIC: 1 µg/mL (≈ 2.38 µM)
E. coli ATCC 25922; ATCC25922, Table 1, range 64 down to 0.12 μg/ml, read-out: MIC E. coli ATCC 25922
  MIC: 1 µg/mL (≈ 2.38 µM)
E. coli ATCC 25922; ATCC25922, Table 4, broth dilution MIC according to CLSI standards (NAEJA), read-out: MIC E. coli ATCC 25922
  MIC: 0.5 µg/mL (≈ 1.19 µM)
C. albicans ATCC 14053
  MIC: 1 µg/mL (≈ 2.38 µM)
[7]; suffix 250 not explained, read-out: IC50_250
  pIC50: 6.10
[7]; suffix 251 not explained, read-out: IC50_251
  pIC50: 6.14
[7]; suffix 381 not explained, read-out: IC50_381
  pIC50: 5.60
[7]; suffix 569 not explained, read-out: IC50_569
  pIC50: 5.44
[8]; 10 mg/kg BID IP
  Mean bacterial tissue burden (log10/thigh): 8.3106 log10/thigh
[8]; [11]
  Log reduction: 0.14 Log and 0.1382 Log
[8]; 20 mg/kg BID IP
  Mean bacterial tissue burden (log10/thigh): 7.7428 log10/thigh
[8]; [12]
  Log reduction: 0.71 Log and 0.7060 Log
MRSA [9]
  Average Zone Size MRSA: 11
MRSA [9]; [10]
  Zone Size MRSA: 11 mm
